Results on one compound are retold here after patent publication US20260130905A1, “TOPICAL FORMULATIONS OF DEUCRAVACITINIB” (Bristol-Myers Squibb Company, priority 2021, published 2026).

In brackets after ≈: the same amount, converted by molar mass.

Holding throughout (format): physicochemical
A short description of series [1]: Solubility of deucravacitinib in water.
The nature of series [2]: Solubility of deucravacitinib in different solvents. An excerpt: The solubility of deucravacitinib was examined in various solvents. […] As these solvents can, in some instances, result in skin irritation, they were not included in the development of the formulations described later in the Examples.
Series [3] can be described thus: Solubility of deucravacitinib in solvent systems. An excerpt: The solubility of deucravacitinib was examined in various solvent systems that included water, as water is an essential component in aqueous gels and creams. The example solvent systems in Table 2 were designed for cream formulations. The total percentage of the solvent system was up to 80% of the total % w/w of the composition, with the remaining up to 20% reserved for oil component(s). Water or acidic buffer (an aqueous solution) accounted for 25% w/w of the total composition.

[4] abbreviates: solvent: N-methyl-2-pyrrolidone (NMP).
The mark [5] stands for this setting: solvent: dimethyl sulfoxide (DMSO).

In the case of `[2H]C([2H])([2H])NC(=O)c1nnc(NC(=O)C2CC2)cc1Nc1cccc(-c2ncn(C)n2)c1OC` [Deucravacitinib, 6-(cyclopropanecarboxamido)-4-((2-methoxy-3-(1-methyl-1H-1,2,4-triazol-3-yl)phenyl)amino)-N-(methyl-d3)pyridazine-3-carboxamide], in series [1], the solubility is roughly 9 µg/mL (≈ 21.2 µM). Besides, the solubility in water in series [1] is on record as roughly 0.00009 % w/w. Besides, the Deucravacitinib solubility is recorded as 0.01 % w/w in series [2] (solvent: Caprylic/capric triglyceride); 0.62 % w/w in series [2] (solvent: Diethylene glycol monoethyl ether (DEGEE)); 0.01 % w/w in series [2] (solvent: Diisopropyl adipate); 0.51 % w/w in series [2] (solvent: Dimethyl isosorbide (DMI)); 0.07 % w/w in series [2] (solvent: Ethanol); 0.02 % w/w in series [2] (solvent: Isopropanol). Further, the Deucravacitinib solubility was found to be 0.00 % w/w in series [2] (solvent: Isopropyl myristate); 10.09 % w/w in series [2] (setting [4]); 0.01 % w/w in series [2] (solvent: Octyldodecanol); 0.64 % w/w in series [2] (solvent: Polyethylene glycol (PEG) 400); 0.31 % w/w in series [2] (solvent: Polysorbate 80); 0.16 % w/w in series [2] (solvent: Propylene glycol). Further, the Deucravacitinib solubility in series [2] (setting [5]) is recorded as 9.49 % w/w; in series [3] (S1: water 25, PEG 400 38, DEGEE 15, benzyl alcohol 2 % w/w), 0.51 % w/w; in series [3] (S2: water 25, PEG 400 38, DMI 15, benzyl alcohol 2 % w/w), 0.48 % w/w; in series [3] (S3: water 25, PEG 400 23, DEGEE 15, DMI 15, benzyl alcohol 2 % w/w), 0.72 % w/w; in series [3] (S4: 0.1N hydrochloric acid solution 25, PEG 400 38, DEGEE 15, benzyl alcohol 2 % w/w), 0.77 % w/w; in series [3] (S5: 0.1N hydrochloric acid solution 25, PEG 400 38, DMI 15, benzyl alcohol 2 % w/w) it was 0.83 % w/w. This compound gave a Deucravacitinib solubility in series [3] (S6: 0.1N hydrochloric acid solution 25, PEG 400 23, DEGEE 15, DMI 15, benzyl alcohol 2 % w/w) of 1.33 % w/w. The “solubility (in words)” value in series [2] (setting [4]) is “high solubility”; in series [2] (setting [5]), “high solubility”; in series [3] (three-solvent system S3 (PEG 400, DEGEE, DMI) compared to two-solvent systems S1 and S2), “greatest solubility”.

By solubility is commonly meant the concentration that dissolves in the medium under given conditions. A higher solubility goes with much dissolved substance.
